Reference: patent publication US8754259B2, “Synthesis of cyclohexane derivatives useful as sensates in consumer products” (The Proctor & Gamble Company, priority 2008, dated 2014)

What was measured:
[1] = concentration where the cooling effect could be clearly recognized; cited from earlier work
[2] = Cooling rating of test dentifrices relative to control dentifrice, panelists n=9; format: in vivo, human; settings: for Cooling Rating Relative to Control: control = 60 on 1-90 scale; for cooling power compared to l-menthyl lactate: in words, dentifrice panel test, 60 minute period
Procedure: The neo-coolants synthesized according to the routes outlined herein were tested to rate their cooling power compared with the corresponding l-isomers (commercially available samples) using the following protocol. Control and test coolants were formulated into a dentifrice at various levels according to the following formula.
Panelists (n=9) were instructed to brush for 30 seconds with a control dentifrice (containing a mixture of coolants 1500 ppm l-WS-3, 3000 ppm Menthol, 3000 ppm MGA and 1000 ppm WS-23), expectorate, and assign the control dentifrice a cooling rating of 60 on a 1-90 scale. The panelists were then given the test dentifrices in random order and instructed to brush and rate each sample relative to the control over a 60-minute period. Cooling ratings relative to control are summarized below.

[3] = Sensory studies of coolant activity (G-180 and neoisomer vs menthol); format: in vivo, human; settings: for burning sensation: sensory evaluations by panelists
Procedure: The coolant properties of the materials prepared according to the present methods are evaluated using sensory studies. […] By contrast, both the G-180 and neoisomer materials provided a sensation that lasted longer than about 15 minutes. The cooling potency of the neoisomer is particularly unexpected, since stereochemistry is a major factor influencing coolant activity and potency for menthol and menthol derivatives as reported in previous studies. [See for example, R. Emberger and R. Hopp (1987), Specialty Chemicals, 7(3), 193-201; R. Eccles (1990), Chemical Senses, 2, 275-291; S. Rovner (2007), Chemical & Engineering News, 85(39), 95-98]. […] The effect on activity of these isomers is far more significant than is observed with menthol.
Sensory evaluation studies of coolant activity may be conducted using a methodology patterned after the techniques described in M. C. Meilgaard, et al., Sensory Evaluation Techniques, 4th Ed. (2007). A panel of trained sensory experts evaluates cooling sensation experienced after using a product with coolant, for example by brushing with a dentifrice or rinsing with an aqueous rinse. In one protocol, panelists brush teeth with 1.5 grams of a test dentifrice (containing coolant) or control (no coolant) and then expectorate. After brush expectoration, panelists evaluate cooling intensity, assigning a number between 0 (no cooling) to 60 (intense cooling). In a rinse protocol, panelists rinse mouth with 15 ml. of an aqueous rinse and expectorate. After rinse expectoration, panelists evaluate cooling intensity according to the same 0 to 60 scale. Evaluations are conducted various time points, for example, at 5, 15, 30, 45, 60 minute, etc. At each evaluation, panelists are instructed to breathe in through pursed lips and evaluate overall cooling sensation. In this test, a numerical score of 7.5 indicates meaningful or definite cooling.

[4] = 0 min, 500 ppm coolant in dentifrice
[5] = 15 min, 500 ppm coolant in dentifrice
[6] = 30 min, 500 ppm coolant in dentifrice
[7] = 45 min, 500 ppm coolant in dentifrice
[8] = 60 min, 500 ppm coolant in dentifrice
[9] = 0 min, 1500 ppm coolant in dentifrice
[10] = 15 min, 1500 ppm coolant in dentifrice
[11] = 30 min, 1500 ppm coolant in dentifrice
[12] = 45 min, 1500 ppm coolant in dentifrice
[13] = 60 min, 1500 ppm coolant in dentifrice

In the case of CC(C)[C@H]1CC[C@H](C)C[C@H]1O [l-neomenthol], the cooling threshold [1] is listed as “about 3,000 ppb”.

For CC(=O)C(=O)OC1CC(C)CCC1C(C)C (stereo not shown) [Neo-Menthyl pyruvate], the “Cooling Rating Relative to Control” value ([2]; 0 min, 1000 ppm coolant in dentifrice) was 57.8, the “Cooling Rating Relative to Control” value ([2]; 15 min, 1000 ppm coolant in dentifrice) was 45.0 and the “Cooling Rating Relative to Control” value ([2]; 30 min, 1000 ppm coolant in dentifrice) was 30.6. For the same molecule, the “Cooling Rating Relative to Control” value ([2]; 45 min, 1000 ppm coolant in dentifrice) was 21.1 and the “Cooling Rating Relative to Control” value ([2]; 60 min, 1000 ppm coolant in dentifrice) was 16.1.

For CC(C)[C@@H]1CC[C@@H](C)C[C@H]1O [L-menthol, l-menthol, reference compound], the “course of cooling sensation after use” value ([3]; sensory studies) is given as “drops sharply within a few minutes after use” and the cooling threshold [1] is given as “about 800 ppb”.

In the case of CC(C)[C@@H]1CC[C@@H](C)C[C@@H]1O [d-neomenthol], the cooling threshold [1] is listed as “about 25,000 ppb”.

With CC1CCC(C(C)C)C(OC(=O)C(C)O)C1 [Neo-Menthyl lactate (2S)] the “Cooling Rating Relative to Control” value [2, 4] was 62.2, the “Cooling Rating Relative to Control” value [2, 5] was 43.9 and the “Cooling Rating Relative to Control” value [2, 6] was 33.9. The “Cooling Rating Relative to Control” value [2, 7] was 27.5, the “Cooling Rating Relative to Control” value [2, 8] was 16.7 and the “cooling power compared to l-menthyl lactate” value [2] was “very strong initial cooling as well as over the 60 minute time period”.

For CC(C)[C@@H]1CC[C@@H](C)C[C@@H]1C(=O)Nc1ccc(CC#N)cc1 [Neo-G-180, N-[4-(cyanomethyl)phenyl]-(1S,2S,5R)-2-isopropyl-5-methylcyclohexanecarboxamide], the cooling properties ([3]; in vivo) was “excellent cooling properties”, the burning sensation [3] was “significantly less of the “burning” sensation” and the melting point was 167 to 169 °C.

In the case of “Neo-Menthyl lactate [Neo-Menthyl lactate (~2:1 S:R)]”, the “Cooling Rating Relative to Control” value ([2]; 0 min, 1950 ppm coolant in dentifrice) is reported as 50.6, the “Cooling Rating Relative to Control” value ([2]; 15 min, 1950 ppm coolant in dentifrice) is reported as 42.8 and the “Cooling Rating Relative to Control” value ([2]; 30 min, 1950 ppm coolant in dentifrice) is reported as 30.6. For the same molecule, the “Cooling Rating Relative to Control” value ([2]; 45 min, 1950 ppm coolant in dentifrice) was 22.2 and the “Cooling Rating Relative to Control” value ([2]; 60 min, 1950 ppm coolant in dentifrice) was 16.7.

With CC(=O)O[C@@H](C)C(=O)O[C@H]1C[C@H](C)CC[C@H]1C(C)C [Neo-Menthyl lactate acetate (2S), (1S,2S,5R)-2-isopropyl-5-methylcyclohexyl-2(S)-acetoxypropanoate] the “Cooling Rating Relative to Control” value ([2]; 0 min, 335 ppm coolant in dentifrice) was 64.4, the “Cooling Rating Relative to Control” value ([2]; 15 min, 335 ppm coolant in dentifrice) was 46.3 and the “Cooling Rating Relative to Control” value ([2]; 30 min, 335 ppm coolant in dentifrice) was 33.1. The “Cooling Rating Relative to Control” value ([2]; 45 min, 335 ppm coolant in dentifrice) was 26.3, the “Cooling Rating Relative to Control” value ([2]; 60 min, 335 ppm coolant in dentifrice) was 21.3 and the “cooling power compared to l-menthyl lactate” value [2] was “very strong initial cooling as well as over the 60 minute time period”.

For CCOC(=O)CNC(=O)[C@H]1C[C@H](C)CC[C@H]1C(C)C [NeoWS-5], the “Cooling Rating Relative to Control” value [2, 9] was 61.9, the “Cooling Rating Relative to Control” value [2, 10] was 39.3 and the “Cooling Rating Relative to Control” value [2, 11] was 29.3. The “Cooling Rating Relative to Control” value [2, 12] was 21.4 and the “Cooling Rating Relative to Control” value [2, 13] was 15.7.

For CCNC(=O)[C@H]1C[C@H](C)CC[C@H]1C(C)C [Neo-WS-3], the “Cooling Rating Relative to Control” value [2, 9] was 43.3, the “Cooling Rating Relative to Control” value [2, 10] was 33.9 and the “Cooling Rating Relative to Control” value [2, 11] was 23.3. The “Cooling Rating Relative to Control” value [2, 12] was 16.7 and the “Cooling Rating Relative to Control” value [2, 13] was 13.3.

For CCOC(=O)CNC(=O)C1CC(C)CCC1C(C)C (stereo not drawn) [l-WS-5, N-ethoxycarbonylmethyl-ρ-menthan-3-carboxamide, reference compound], the “Cooling Rating Relative to Control” value [2, 9] was 53.9, the “Cooling Rating Relative to Control” value [2, 10] was 40.0 and the “Cooling Rating Relative to Control” value [2, 11] was 26.7. The “Cooling Rating Relative to Control” value [2, 12] was 17.8 and the “Cooling Rating Relative to Control” value [2, 13] was 13.3.

With CC(C)[C@@H]1CC[C@@H](C)C[C@H]1OC(=O)[C@H](C)O [l-Menthyl lactate (2S), reference compound] the “Cooling Rating Relative to Control” value [2, 4] was 50.0, the “Cooling Rating Relative to Control” value [2, 5] was 38.0 and the “Cooling Rating Relative to Control” value [2, 6] was 26.5. The “Cooling Rating Relative to Control” value [2, 7] was 18.5 and the “Cooling Rating Relative to Control” value [2, 8] was 13.5.

With CCNC(=O)C1CC(C)CCC1C(C)C (stereo not drawn) [l-WS-3, N-ethyl-ρ-menthan-3-carboxamide, reference compound] the “Cooling Rating Relative to Control” value [2, 9] was 53.5, the “Cooling Rating Relative to Control” value [2, 10] was 36.5 and the “Cooling Rating Relative to Control” value [2, 11] was 27.0. The “Cooling Rating Relative to Control” value [2, 12] was 20.5 and the “Cooling Rating Relative to Control” value [2, 13] was 15.5.

In the case of CC(C)[C@@H]1CC[C@@H](C)C[C@H]1C(=O)Nc1ccc(CC#N)cc1 [G-180, N-[4-(cyanomethyl)phenyl]-(1R,2S,5R)-2-isopropyl-5-methylcyclohexanecarboxamide, reference compound], the burning sensation [3] is reported as ““burning” sensation especially when used at fairly high levels”.
